Source: the supplement of paper PMC6411743

Compound: Nc1ncnc2c1ncn2[C@@H]1O[C@H](COP(=O)(O)OP(=O)(O)OP(=O)(O)O)[C@@H](O)[C@H]1O [adenosine triphosphate]
Experiment: pEC50 of ATP-induced change in protein thermal stability (2D-TPP)
Procedure, shortened: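 Each of three independent experiments used Jurkat crude lysate given five concentrations including vehicle (10 min, room temperature), followed by 3 min at one of 12 temperatures from 42 to 63.9 °C and NP40 with benzonase (60 min, 4 °C). TMT LC-MS/MS quantified soluble protein after ultracentrifugation, expressed as fold changes against vehicle at each temperature with median normalisation. For pEC50, dose-response curves were fitted per replicate over adjacent temperature pairs, and hits were called through permutation-based false discovery rate control.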
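Also: lysate dosed with Na-ATP at 0 0.005 0.05 0.5 and 2 mM.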

Chain of UniProt P20226 (P20226 whole entry): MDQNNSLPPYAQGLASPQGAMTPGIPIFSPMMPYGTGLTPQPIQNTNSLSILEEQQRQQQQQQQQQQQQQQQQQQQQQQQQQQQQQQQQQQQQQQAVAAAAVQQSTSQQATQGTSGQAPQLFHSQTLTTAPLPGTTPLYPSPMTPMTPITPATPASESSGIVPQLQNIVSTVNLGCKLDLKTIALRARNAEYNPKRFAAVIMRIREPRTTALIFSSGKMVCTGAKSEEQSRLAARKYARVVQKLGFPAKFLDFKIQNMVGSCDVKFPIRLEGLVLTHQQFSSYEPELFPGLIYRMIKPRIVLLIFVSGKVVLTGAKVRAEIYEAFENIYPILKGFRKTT
Chain of UniProt Q12931 (Q12931 whole entry): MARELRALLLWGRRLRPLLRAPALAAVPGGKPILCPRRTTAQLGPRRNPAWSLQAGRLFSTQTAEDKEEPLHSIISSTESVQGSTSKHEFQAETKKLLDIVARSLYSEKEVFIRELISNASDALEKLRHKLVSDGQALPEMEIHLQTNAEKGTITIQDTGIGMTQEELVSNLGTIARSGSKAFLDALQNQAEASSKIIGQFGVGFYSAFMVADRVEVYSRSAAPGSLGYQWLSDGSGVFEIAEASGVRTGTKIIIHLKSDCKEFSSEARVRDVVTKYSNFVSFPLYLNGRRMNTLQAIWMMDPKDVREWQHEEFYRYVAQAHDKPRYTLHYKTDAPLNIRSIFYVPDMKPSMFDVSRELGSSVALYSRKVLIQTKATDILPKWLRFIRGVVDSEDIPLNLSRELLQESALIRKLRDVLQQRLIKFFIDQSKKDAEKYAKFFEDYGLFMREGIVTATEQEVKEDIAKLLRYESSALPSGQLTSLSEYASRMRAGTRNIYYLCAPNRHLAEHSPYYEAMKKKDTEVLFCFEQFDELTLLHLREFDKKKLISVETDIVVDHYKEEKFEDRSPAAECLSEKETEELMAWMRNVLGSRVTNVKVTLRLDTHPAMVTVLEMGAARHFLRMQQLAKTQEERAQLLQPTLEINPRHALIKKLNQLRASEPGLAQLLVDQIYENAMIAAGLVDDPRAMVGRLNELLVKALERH
Chain of UniProt P09661 (P09661 whole entry): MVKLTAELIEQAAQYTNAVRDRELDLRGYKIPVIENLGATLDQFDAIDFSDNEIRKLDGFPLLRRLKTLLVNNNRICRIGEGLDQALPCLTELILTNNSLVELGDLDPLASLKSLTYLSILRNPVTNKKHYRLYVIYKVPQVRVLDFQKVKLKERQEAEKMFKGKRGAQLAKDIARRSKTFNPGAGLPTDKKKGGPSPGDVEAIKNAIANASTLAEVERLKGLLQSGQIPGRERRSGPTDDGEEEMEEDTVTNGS
Chain of UniProt Q15393 (Q15393 whole entry): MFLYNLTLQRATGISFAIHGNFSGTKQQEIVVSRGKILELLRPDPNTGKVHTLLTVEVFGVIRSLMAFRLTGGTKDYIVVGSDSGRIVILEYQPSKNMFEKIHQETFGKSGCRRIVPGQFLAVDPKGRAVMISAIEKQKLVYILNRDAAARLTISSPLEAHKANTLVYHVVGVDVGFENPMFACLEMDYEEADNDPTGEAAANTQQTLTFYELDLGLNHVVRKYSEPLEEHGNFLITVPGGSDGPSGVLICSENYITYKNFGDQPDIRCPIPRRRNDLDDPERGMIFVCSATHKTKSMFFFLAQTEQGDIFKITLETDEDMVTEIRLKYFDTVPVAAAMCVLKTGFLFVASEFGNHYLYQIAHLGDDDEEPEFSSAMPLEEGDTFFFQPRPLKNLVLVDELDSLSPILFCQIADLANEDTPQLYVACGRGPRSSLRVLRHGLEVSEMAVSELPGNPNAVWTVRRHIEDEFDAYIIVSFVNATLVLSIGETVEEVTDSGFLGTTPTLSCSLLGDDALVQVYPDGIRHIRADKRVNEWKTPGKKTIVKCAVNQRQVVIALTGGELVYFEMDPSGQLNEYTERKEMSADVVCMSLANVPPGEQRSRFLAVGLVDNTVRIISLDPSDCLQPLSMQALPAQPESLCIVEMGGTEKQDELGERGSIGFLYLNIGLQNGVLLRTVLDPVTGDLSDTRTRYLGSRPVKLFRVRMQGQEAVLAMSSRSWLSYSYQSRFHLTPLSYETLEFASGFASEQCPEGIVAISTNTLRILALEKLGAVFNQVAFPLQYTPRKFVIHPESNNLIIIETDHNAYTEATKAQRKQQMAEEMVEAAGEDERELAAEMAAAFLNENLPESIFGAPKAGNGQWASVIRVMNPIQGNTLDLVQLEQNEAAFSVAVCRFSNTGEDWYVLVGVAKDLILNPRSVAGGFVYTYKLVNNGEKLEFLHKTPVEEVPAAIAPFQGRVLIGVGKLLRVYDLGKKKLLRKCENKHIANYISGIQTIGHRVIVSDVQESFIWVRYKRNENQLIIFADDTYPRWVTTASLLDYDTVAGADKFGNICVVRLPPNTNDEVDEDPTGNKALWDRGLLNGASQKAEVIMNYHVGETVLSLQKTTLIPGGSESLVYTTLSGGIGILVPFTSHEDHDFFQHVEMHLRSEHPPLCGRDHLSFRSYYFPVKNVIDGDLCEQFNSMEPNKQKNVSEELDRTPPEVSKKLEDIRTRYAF
Chain of UniProt Q9NTJ3 (Q9NTJ3 whole entry): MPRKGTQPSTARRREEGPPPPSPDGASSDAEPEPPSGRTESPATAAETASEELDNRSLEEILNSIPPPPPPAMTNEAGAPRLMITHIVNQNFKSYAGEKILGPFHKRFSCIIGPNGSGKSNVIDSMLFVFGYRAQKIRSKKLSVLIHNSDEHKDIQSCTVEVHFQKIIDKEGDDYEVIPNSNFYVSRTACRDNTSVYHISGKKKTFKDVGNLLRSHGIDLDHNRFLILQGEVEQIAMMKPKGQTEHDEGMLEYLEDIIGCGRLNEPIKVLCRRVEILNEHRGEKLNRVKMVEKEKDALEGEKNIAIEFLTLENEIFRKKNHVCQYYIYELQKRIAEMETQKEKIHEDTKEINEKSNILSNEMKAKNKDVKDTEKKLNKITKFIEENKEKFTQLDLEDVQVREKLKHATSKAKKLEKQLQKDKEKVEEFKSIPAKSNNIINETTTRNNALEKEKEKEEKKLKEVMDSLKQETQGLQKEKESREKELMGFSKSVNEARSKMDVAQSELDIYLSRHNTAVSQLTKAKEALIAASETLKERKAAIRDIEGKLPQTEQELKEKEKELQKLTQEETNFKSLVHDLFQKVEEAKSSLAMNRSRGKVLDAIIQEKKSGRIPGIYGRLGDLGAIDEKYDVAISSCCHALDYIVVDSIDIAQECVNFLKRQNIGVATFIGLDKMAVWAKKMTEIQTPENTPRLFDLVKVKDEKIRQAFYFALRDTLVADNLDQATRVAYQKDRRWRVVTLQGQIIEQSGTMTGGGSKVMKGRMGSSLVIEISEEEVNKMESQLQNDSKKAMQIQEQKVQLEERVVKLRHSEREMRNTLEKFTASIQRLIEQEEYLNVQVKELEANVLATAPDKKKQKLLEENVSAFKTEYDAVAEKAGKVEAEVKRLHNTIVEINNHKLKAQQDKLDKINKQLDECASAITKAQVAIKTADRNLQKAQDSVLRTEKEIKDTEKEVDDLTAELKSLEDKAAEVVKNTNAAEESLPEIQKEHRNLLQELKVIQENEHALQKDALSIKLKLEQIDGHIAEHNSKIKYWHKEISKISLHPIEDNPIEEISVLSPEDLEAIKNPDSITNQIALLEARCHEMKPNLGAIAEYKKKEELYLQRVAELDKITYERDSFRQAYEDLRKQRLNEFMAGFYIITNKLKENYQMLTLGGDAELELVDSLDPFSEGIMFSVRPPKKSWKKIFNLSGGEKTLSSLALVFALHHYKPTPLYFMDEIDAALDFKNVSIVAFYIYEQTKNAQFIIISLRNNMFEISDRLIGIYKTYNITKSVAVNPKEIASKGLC
Chain of UniProt Q8NB90 (Q8NB90 whole entry): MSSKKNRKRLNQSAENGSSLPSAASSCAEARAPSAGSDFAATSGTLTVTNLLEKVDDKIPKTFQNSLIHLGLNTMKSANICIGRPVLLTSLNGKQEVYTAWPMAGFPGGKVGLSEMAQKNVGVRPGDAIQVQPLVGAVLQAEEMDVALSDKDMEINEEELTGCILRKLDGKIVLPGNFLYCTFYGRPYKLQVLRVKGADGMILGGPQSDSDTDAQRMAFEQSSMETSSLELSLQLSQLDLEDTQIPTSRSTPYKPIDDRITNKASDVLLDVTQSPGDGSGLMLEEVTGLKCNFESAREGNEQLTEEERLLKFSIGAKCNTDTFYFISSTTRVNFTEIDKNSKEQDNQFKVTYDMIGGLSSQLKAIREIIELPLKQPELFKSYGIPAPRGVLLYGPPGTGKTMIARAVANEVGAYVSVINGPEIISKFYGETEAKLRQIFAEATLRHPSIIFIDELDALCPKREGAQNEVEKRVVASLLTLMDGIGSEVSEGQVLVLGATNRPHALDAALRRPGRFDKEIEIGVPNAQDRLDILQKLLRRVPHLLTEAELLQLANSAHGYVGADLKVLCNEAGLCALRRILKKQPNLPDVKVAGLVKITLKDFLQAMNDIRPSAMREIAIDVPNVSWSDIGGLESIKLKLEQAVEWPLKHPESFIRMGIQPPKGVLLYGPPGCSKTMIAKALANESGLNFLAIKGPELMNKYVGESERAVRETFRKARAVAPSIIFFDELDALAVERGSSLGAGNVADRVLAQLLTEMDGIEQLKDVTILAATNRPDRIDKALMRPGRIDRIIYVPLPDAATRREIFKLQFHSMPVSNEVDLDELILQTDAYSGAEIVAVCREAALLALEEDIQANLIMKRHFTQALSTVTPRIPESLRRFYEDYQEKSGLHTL
Chain of UniProt P50502 (P50502 whole entry): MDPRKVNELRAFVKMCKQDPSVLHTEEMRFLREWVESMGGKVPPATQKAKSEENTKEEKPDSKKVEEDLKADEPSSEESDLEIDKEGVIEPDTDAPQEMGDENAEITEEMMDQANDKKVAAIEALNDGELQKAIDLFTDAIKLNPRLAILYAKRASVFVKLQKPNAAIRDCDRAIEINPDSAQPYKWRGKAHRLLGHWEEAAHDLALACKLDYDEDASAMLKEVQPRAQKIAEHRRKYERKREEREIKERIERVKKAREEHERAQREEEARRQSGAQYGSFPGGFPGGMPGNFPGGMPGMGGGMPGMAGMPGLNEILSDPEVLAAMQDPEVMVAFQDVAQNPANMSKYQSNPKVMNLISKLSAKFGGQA

| pEC50 | Target |
| --- | --- |
| 3.37 | SCPEP1 (effect direction: stabilized) (UniProt Q9HB40) |
| < 2.7 | SDAD1 (effect direction: destabilized) (UniProt Q9NVU7) |
| 2.79 | SF3A1 (effect direction: stabilized) (UniProt Q15459) |
| < 2.7 | SF3A3 (effect direction: stabilized) (UniProt Q12874) |
| < 2.7 | SF3B3 (effect direction: stabilized) (UniProt Q15393) |
| 2.77 | SFXN1 (effect direction: stabilized) (UniProt Q9H9B4) |
| < 2.7 | SH2D1A (effect direction: stabilized) (UniProt O60880) |
| 2.83 | SHKBP1 (effect direction: stabilized) (UniProt Q8TBC3) |
| 2.83 | SHPK (effect direction: stabilized) (UniProt Q9UHJ6) |
| 2.92 | SKIV2L (effect direction: stabilized) (UniProt Q15477) |
| 3.47 | SLBP (effect direction: stabilized) (UniProt Q14493) |
| 3.44 | SLC12A2 (effect direction: stabilized) (UniProt P55011) |
| 3.94 | SLC12A9 (effect direction: stabilized) (UniProt Q9BXP2) |
| 3.05 | SLC27A4 (effect direction: stabilized) (UniProt Q6P1M0) |
| 4.03 | SMARCA5 (effect direction: stabilized) (UniProt O60264) |
| 3.94 | SMARCAD1 (effect direction: stabilized) (UniProt Q9H4L7) |
| 3.43 | SMARCC1 (effect direction: stabilized) (UniProt Q92922) |
| 3.41 | SMC1A (effect direction: stabilized) (UniProt Q14683) |
| 3.49 | SMC2 (effect direction: stabilized) (UniProt O95347) |
| 3.41 | SMC3 (effect direction: stabilized) (UniProt Q9UQE7) |
| 3.54 | SMC4 (effect direction: stabilized) (UniProt Q9NTJ3) |
| 3.49 | SMG6 (effect direction: stabilized) (UniProt Q86US8) |
| 3.22 | SND1 (effect direction: stabilized) (UniProt Q7KZF4) |

| pEC50 | Target |
| --- | --- |
| 3.64 | SNRNP27 (effect direction: stabilized) (UniProt Q8WVK2) |
| < 2.7 | SNRPA1 (effect direction: stabilized) (UniProt P09661) |
| < 2.7 | SNRPB (effect direction: destabilized) (UniProt P14678) |
| < 2.7 | SNX1 (effect direction: stabilized) (UniProt Q13596) |
| < 2.7 | SNX2 (effect direction: stabilized) (UniProt O60749) |
| < 2.7 | SNX5 (effect direction: stabilized) (UniProt Q9Y5X3) |
| < 2.7 | SNX6 (effect direction: stabilized) (UniProt Q9UNH7) |
| 3.34 | SPAST (effect direction: stabilized) (UniProt Q9UBP0) |
| 2.96 | SPATA5 (effect direction: stabilized) (UniProt Q8NB90) |
| 4.48 | SPG7 (effect direction: stabilized) (UniProt Q9UQ90) |
| 3.88 | SPN (effect direction: destabilized) (UniProt P16150) |
| < 2.7 | SPTBN1 (effect direction: stabilized) (UniProt Q01082) |
| 3.37 | SRC (effect direction: stabilized) (UniProt P12931) |
| 2.86 | SRFBP1 (effect direction: destabilized) (UniProt Q8NEF9) |
| 3.64 | SRPK1 (effect direction: stabilized) (UniProt Q96SB4) |
| 3.22 | SRPRB (effect direction: stabilized) (UniProt Q9Y5M8) |
| < 2.7 | SRRM2 (effect direction: stabilized) (UniProt Q9UQ35) |
| < 2.7 | SSB (effect direction: stabilized) (UniProt P05455) |
| 3.1 | ST13 (effect direction: stabilized) (UniProt P50502) |
| 4.09 | STAG2 (effect direction: stabilized) (UniProt Q8N3U4) |
| < 2.7 | STXBP2 (effect direction: stabilized) (UniProt Q15833) |
| 3.37 | SUB1 (effect direction: destabilized) (UniProt P53999) |
| 3.12 | SUPV3L1 (effect direction: stabilized) (UniProt Q8IYB8) |

| pEC50 | Target |
| --- | --- |
| < 2.7 | SWAP70 (effect direction: stabilized) (UniProt Q9UH65) |
| 3.21 | TARDBP (effect direction: stabilized) (UniProt Q13148) |
| < 2.7 | TBCB (effect direction: stabilized) (UniProt Q99426) |
| 3.12 | TBP (effect direction: destabilized) (UniProt P20226) |
| 4.76 | TCP1 (effect direction: stabilized) (UniProt P17987) |
| < 2.7 | THOC1 (effect direction: stabilized) (UniProt Q96FV9) |
| 3.1 | THUMPD3 (effect direction: stabilized) (UniProt Q9BV44) |
| 3.07 | TLK2 (effect direction: stabilized) (UniProt Q86UE8) |
| < 2.7 | TLN1 (effect direction: stabilized) (UniProt Q9Y490) |
| 3.04 | TMEM33 (effect direction: stabilized) (UniProt P57088) |
| 3.26 | TMEM173 (effect direction: stabilized) (UniProt Q86WV6) |
| 4.09 | TOR1A (effect direction: stabilized) (UniProt O14656) |
| 3.26 | TPP1 (effect direction: stabilized) (UniProt O14773) |
| 3.33 | TRAP1 (effect direction: stabilized) (UniProt Q12931) |
| 2.77 | TRIM21 (effect direction: stabilized) (UniProt P19474) |
| < 2.7 | TRIM28 (effect direction: stabilized) (UniProt Q13263) |
| 3.31 | TRMU (effect direction: stabilized) (UniProt O75648) |
| 3.12 | TSEN2 (effect direction: stabilized) (UniProt Q8NCE0) |
| < 2.7 | TSEN34 (effect direction: stabilized) (UniProt Q9BSV6) |
| 3.51 | TSR1 (effect direction: destabilized) (UniProt Q2NL82) |
| 2.73 | TSTA3 (effect direction: stabilized) (UniProt Q13630) |
| 2.91 | TTC33 (effect direction: stabilized) (UniProt Q6PID6) |
| 3.19 | TTC37 (effect direction: stabilized) (UniProt Q6PGP7) |

| pEC50 | Target |
| --- | --- |
| 3.17 | TTF2 (effect direction: stabilized) (UniProt Q9UNY4) |
| 3.5 | TUBA1C (effect direction: stabilized) (UniProt Q9BQE3) |
| 3.69 | TUBB3 (effect direction: stabilized) (UniProt Q13509) |
| 2.93 | TUT1 (effect direction: stabilized) (UniProt Q9H6E5) |
| < 2.7 | UBA2 (effect direction: stabilized) (UniProt Q9UBT2) |
| 3.86 | UBA3 (effect direction: stabilized) (UniProt Q8TBC4) |
| 3.81 | UBA5 (effect direction: stabilized) (UniProt Q9GZZ9) |
| < 2.7 | UBE2O (effect direction: stabilized) (UniProt Q9C0C9) |
| < 2.7 | UBE3A (effect direction: stabilized) (UniProt Q05086) |
| 2.88 | UBLCP1 (effect direction: destabilized) (UniProt Q8WVY7) |
| < 2.7 | UCHL5 (effect direction: stabilized) (UniProt Q9Y5K5) |
| 3.11 | UGDH (effect direction: stabilized) (UniProt O60701) |
| < 2.7 | UMPS (effect direction: stabilized) (UniProt P11172) |
| < 2.7 | USO1 (effect direction: stabilized) (UniProt O60763) |
| < 2.7 | USP5 (effect direction: stabilized) (UniProt P45974) |
| < 2.7 | USP14 (effect direction: stabilized) (UniProt P54578) |
| < 2.7 | USP47 (effect direction: stabilized) (UniProt Q96K76) |
| 2.92 | UTP15 (effect direction: destabilized) (UniProt Q8TED0) |
| 4.28 | UniProt O00487 (effect direction: stabilized) |
| 3.26 | UniProt O14757 (effect direction: stabilized) |
| 3.5 | UniProt O14920 (effect direction: stabilized) |
| 3.25 | UniProt O14965 (effect direction: stabilized) |
